Laboratory results published in article PMC10975178, “Evaluation on the Potential for Hepatotoxic Components from Herba Epimedii to Induce Apoptosis in HepG2 Cells and the Analysis of the Influence of Metabolism in Liver Microsomes” (Molecules, 2024).
Like-named read-outs stand apart in the source and are kept apart here.

Experiments:
in vitro [1] = assay type: in vitro ADME, rhesus monkeys; conditions: rhesus monkey, microsomes; for final amount remaining: 60 min, 5 μM
in vitro [2] = assay type: in vitro ADME, beagle dogs; conditions: beagle, dog, microsomes; for final amount remaining: 60 min, 5 μM
[3] = assay type: in vitro ADME, SD rats; conditions: SD, rat, microsomes, 1 h, 5 μM
in vitro [4] = assay type: in vitro ADME, mice; conditions: mouse, microsomes; for amount remaining: 1 h, 5 μM
HepG2 cells [5] = experiment: HepG2 cell apoptosis after incubation of the compound with human liver microsomes (metabolism mixture); assay type: cell-based; conditions: mixture on HepG2 cells 24 h
Procedure: HepG2 cells were cultured in Roswell Park Memorial Institute (RPMI) 1640 medium (GIBCO, Grand Island, NY, USA) supplemented with 10% heat-inactivated fetal bovine serum (PAN Biotech GmbH, Aidenbach, Germany), 100 U/mL penicillin, and 100 μg/mL streptomycin. The cells were maintained in a humidified atmosphere with 5% CO2 at 37 °C. Upon reaching 90% confluence, the cells were prepared as single-cell suspensions at a density of 1 × 10^4 cells/mL by treatment with 0.25% trypsin with 0.02% EDTA and then dispensed into 12-well plates (Corning, NY, USA) with a total volume of 1.5 mL per well. After culturing for 24 h, the medium was discarded, and the cells were incubated with fresh medium or medium containing different hepatotoxic compounds at various concentrations for an additional 24 h. […] After treatment, the cells were collected for apoptosis analysis. To investigate the effects of the hepatotoxic compounds on HepG2 cell apoptosis, flow cytometry was performed with a FACSCalibur flow cytometer (BD Biosciences) using an Annexin V-FITC apoptosis detection kit. The cells were prepared according to the manufacturer’s instructions. Briefly, the collected cell pellets were washed three times by centrifugation at 2000 rpm and 4 °C for 5 min with PBS and resuspended in binding buffer. Then, the cells were incubated with Annexin V-FITC for 15 min, propidium iodide (PI) was added, and the cells were incubated for another 5 min. The whole labeling process was performed in the dark. After fluorescent labeling, the cell suspension was immediately analyzed by flow cytometry. Cells in the early phases of apoptosis can bind Annexin V-FITC but exclude PI, while cells in late apoptosis or those that are necrotic can be stained with Annexin V-FITC and PI simultaneously. The incubation mixtures were prepared following the instructions from the manufacturer of the metabolic stability kits and contained sagittatoside A, icariside I, baohuoside I, and icaritin, of which the final concentrations were 49, 50, 32 and 3.8 μg/mL. […]

[6] = assay type: in vitro ADME, SD rats; conditions: SD, rat, microsomes, 60 min, 5 μM
HepG2 cells [7] = experiment: HepG2 cell apoptosis by flow cytometry (Annexin V-FITC/PI); assay type: cell-based; conditions: 24 h
Procedure: HepG2 cells were cultured in Roswell Park Memorial Institute (RPMI) 1640 medium (GIBCO, Grand Island, NY, USA) supplemented with 10% heat-inactivated fetal bovine serum (PAN Biotech GmbH, Aidenbach, Germany), 100 U/mL penicillin, and 100 μg/mL streptomycin. The cells were maintained in a humidified atmosphere with 5% CO2 at 37 °C. Upon reaching 90% confluence, the cells were prepared as single-cell suspensions at a density of 1 × 10^4 cells/mL by treatment with 0.25% trypsin with 0.02% EDTA and then dispensed into 12-well plates (Corning, NY, USA) with a total volume of 1.5 mL per well. After culturing for 24 h, the medium was discarded, and the cells were incubated with fresh medium or medium containing different hepatotoxic compounds at various concentrations for an additional 24 h. […] After treatment, the cells were collected for apoptosis analysis. To investigate the effects of the hepatotoxic compounds on HepG2 cell apoptosis, flow cytometry was performed with a FACSCalibur flow cytometer (BD Biosciences) using an Annexin V-FITC apoptosis detection kit. The cells were prepared according to the manufacturer’s instructions. Briefly, the collected cell pellets were washed three times by centrifugation at 2000 rpm and 4 °C for 5 min with PBS and resuspended in binding buffer. Then, the cells were incubated with Annexin V-FITC for 15 min, propidium iodide (PI) was added, and the cells were incubated for another 5 min. The whole labeling process was performed in the dark. After fluorescent labeling, the cell suspension was immediately analyzed by flow cytometry. Cells in the early phases of apoptosis can bind Annexin V-FITC but exclude PI, while cells in late apoptosis or those that are necrotic can be stained with Annexin V-FITC and PI simultaneously.

| final amount remaining (in vitro [1]) [%] | CLint scaled at 5 μM (in vitro [2]) [mL/min/kg] | final amount remaining (in vitro [2]) [%] | amount remaining [3] [%] | amount remaining (in vitro [4]) [%] | final amount remaining [6] [%] | CLint scaled at 5 μM (in vitro [1]) [mL/min/kg] | CLint scaled at 5 μM (in vitro [4]) [mL/min/kg] | Structure (SMILES) | apoptosis rate, metabolism mixture (HepG2 cells [5]; 32 μg/mL incubated 30 min with human liver microsomes (phase I and II), insignificant) [%] | apoptosis rate (HepG2 cells [7]; 32 μg/mL, mean ± SD n = 3, p < 0.05 vs control) [%] | apoptosis rate, metabolism mixture (HepG2 cells [5]; 50 μg/mL incubated 30 min with human liver microsomes (phase I and II), p < 0.05) [%] | apoptosis rate (HepG2 cells [7]; 50 μg/mL, mean ± SD n = 3, no change vs control) [%] | apoptosis rate, metabolism mixture (HepG2 cells [5]; 3.8 μg/mL incubated 30 min with human liver microsomes (phase I and II), p < 0.01) [%] | apoptosis rate (HepG2 cells [7]; 3.8 μg/mL, mean ± SD n = 3, p < 0.01 vs control) [%] |
| --- | --- | --- | --- | --- | --- | --- | --- | --- | --- | --- | --- | --- | --- | --- |
| 0.86 ± 0.17 | 28.4 | 5.69 ± 0.33 | 8.52 ± 0.15 | 28.58 ± 4.12 | 1.55 ± 0.33 | – | – | COc1ccc(-c2oc3c(CC=C(C)C)c(O)cc(O)c3c(=O)c2O[C@@H]2O[C@@H](C)[C@H](O)[C@@H](O)[C@H]2O)cc1 [baohuoside I] | 3.40 ± 0.19 | 3.93 ± 0.20 | – | – | – | – |
| 17.23 ± 5.20 | 24.7 | 30.79 ± 3.26 | 2.38 ± 0.32 | 7.69 ± 1.17 | 22.71 ± 10.94 | 36.4 | 80.4 | COc1ccc(-c2oc3c(CC=C(C)C)c(O[C@@H]4O[C@H](CO)[C@@H](O)[C@H](O)[C@H]4O)cc(O)c3c(=O)c2O)cc1 [icariside I] | – | – | 3.86 ± 0.22 | 2.39 ± 0.34 | – | – |
| 14.86 ± 0.76 | – | 4.42 ± 0.67 | 48.95 ± 4.13 | 28.55 ± 0.04 | 19.44 ± 0.36 | – | – | COc1ccc(-c2oc3c(CC=C(C)C)c(O)cc(O)c3c(=O)c2O)cc1 [icaritin] | – | – | – | – | 5.61 ± 0.83 | 25.93 ± 0.66 |
